Test results taken from patent publication US12251410B2, “Anticancer trail-targeted plant virus particles” (CASE WESTERN RESERVE UNIVERSITY, priority 2017, dated 2025).
“Also recorded” adds a separate entry of the source.

Legend:
[1] = system: MDA-MB-231 triple negative breast cancer cell line; assay: MTT cytotoxicity assay, MDA-MB-231; assay type: cell-based; settings: 12 h incubation, normalized to TRAIL, GraphPad Prism
Protocol: (§1) Herein, a panel of triple negative breast cancer (TNBC) cell lines, MDA-MB-231, HCC-38, and BT-549, were used.
(§2) Triple negative breast cancer cell lines MDA-MB-231, HCC-38, and BT-549 cell lines (provided by Prof. Ruth Keri, Case Western Reserve University) and HER-2 amplified breast cancer cell line SK-BR-3 (ATCC). MDA-MB-231, HCC-38, BT-549, and SK-BR-3 were cultured in Dulbecco's modified Eagle's medium (DMEM) and Roswell Park Memorial Institute (RPMI) 1640 medium without or with insulin (0.023 IU/mL final concentration), and McCoy's 5A medium, respectively. All media were supplemented with 10% (v/v) fetal bovine serum (FBS) and 1% (v/v) penicillin/streptomycin. All cells were maintained at 37° C. and 5% CO2.
(§3) Cells (MDA-MB-231, HCC-38, BT-549, and SK-BR-3) were seeded at 5,000 cells per well in culture medium in 96-well plates 1 day prior to treatment. […] Samples were prepared in triplicate and each assay was performed at least twice. […] Following incubation, cells were washed with PBS, pH 7.4 and fresh medium was replenished; then 10 μL MTT reagent was added as per manufacturer's instructions. Absorbance was determined using the Tecan infinite-M200 plate reader.

HCC-38 cell line (TNBC) = assay: MTT cytotoxicity assay, HCC-38; assay type: cell-based; settings: 12 h incubation, normalized to TRAIL, GraphPad Prism
Protocol: as §1, §2, §3

BT-549 cell line (TNBC) = assay: MTT cytotoxicity assay, BT-549; assay type: cell-based; settings: 12 h incubation, normalized to TRAIL, GraphPad Prism
Protocol: as §1, §2, §3

[2] = system: SK-BR-3, HER2-amplified breast cancer cell line; assay: MTT cytotoxicity assay, SK-BR-3; assay type: cell-based; settings: HER-2 amplified breast cancer cell line
Protocol: Data are expressed as means±SD.
as §1, §2, §3

caspase-8 = assay: Caspase-Glo 8 assay in MDA-MB-231 cells; assay type: cell-based; settings: 20 ng/mL HisTRAIL, 3 h
Text: (§4) TRAIL-DR4/5 receptor binding activates caspase-dependent apoptosis. Specifically, TRAIL-DR4/5 receptor binding induces receptor oligomerization, followed by the recruitment of FAS-associated protein with death domain (FADD) and pro-caspase-8 to form a functional death-inducing signaling complex (DISC) at the plasma membrane. Subsequently, caspase-8 is activated and released into the cytosol, where it cleaves and activates caspase-3 or -7 to execute the apoptosis in cancer cells (FIG. 4). […] The drugs were incubated with MDA-MB-231 cells for 3 h before adding reagents from Caspase-Glo 8 and Caspase-Glo 3/7 Assay Kit. The assay was performed as per manufacturer's instructions.
(§5) Determination of levels of activated caspase-8 and caspase-3/7 MDA-MB-231 cells were seeded at 5,000 cells per well in a white-walled 96-well luminometer microplate one day prior to treatment. […] Non-treated cells were used as control. Samples were prepared in triplicate. Caspase-Glo 8 assay kit and Caspase-Glo 3/7 assay kit (Promega) were used to determine the level of activated caspases. Briefly, the reagent causes cell lysis, followed by caspase cleavage of the substrate and aminoluciferin which produces a luminescent signal in the presence of luciferase and ATP from the kit. Luminescence was read by the Tecan infinite-M200 plate reader to determine the proportional activated level of caspase 8- and 3/7.

caspase-3/7 = assay: Caspase-Glo 3/7 assay in MDA-MB-231 cells; assay type: cell-based; settings: 20 ng/mL HisTRAIL, 3 h
Text: as §4, §5

[3] = system: subcutaneous MDA-MB-231 tumors; assay: Treatment of MDA-MB-231 xenografts in athymic nude mice; assay type: in vivo, mouse
Protocol: FIGS. 3(A-C) are graphs and images illustrating treatment of MDA-MB-231 xenografts in an athymic nude mouse model. 6-week-old female NCR nu/nu mice were injected subcutaneously into the right flank with 2×10^6 cells; treatment began when tumor volume reached 100-150 mm^3, approximately 2 weeks after tumor cell inoculation. […] 20 μL PBS or corresponding particle amount of PVXNi were injected as controls. Tumor volume was normalized at the initial day. Data were expressed as expressed as means+SD. (A) Tumor growth curve during treatment. (B) Tumor volume distribution in each group during treatment. (C) Representative of isolated tumor tissues after treatment.
Treatment started when the tumor volume reached 100-150 mm^3. […] While we envision systemic administration for clinical applications, we started here by evaluating intratumoral treatments to focus on the question as to whether PVX-delivered HisTRAIL would outperform free HisTRAIL; the intratumoral treatment allows one to precisely control and match the dosing, and, thus, eliminates confounding factors from varying biodistribution. […]
The animal study was carried using an IACUC-approved protocol. […] Tumors were measured daily and the volume was calculated using the formula v=(l×w^2)/2, where l is the length and w is the width of tumor. […] All results are expressed as means±SD, calculated by GraphPad Prism. […]

[4] = background statement; cited from earlier work

Row | Substance | IC50 values, MDA-MB-231 [1] [µg/mL] | IC50 values, MDA-MB-231 ([1]; listed as HiTRAIL) [µg/mL] | IC50 values, HCC-38 (HCC-38 cell line (TNBC)) [µg/mL] | IC50 values, BT-549 (BT-549 cell line (TNBC)) [µg/mL] | cell killing / apoptosis induction in SK-BR-3 [2] | level of caspase 8, increase compared to PBS control (caspase-8) [fold] | caspase 3/7 increase vs. PBS controls (caspase-3/7) [fold] | average relative tumor volume increase vs. starting volume ([3]; day 30 post first treatment, intratumoral every 2 days, 5 μg His-TRAIL/injection (PVX-Ni at corresponding particle amount)) [fold] | tumor growth inhibition (in words) ([3]; intratumoral, athymic nude mice with MDA-MB-231 tumors, vs PBS control) | potency compared to cisplatin, carboplatin and oxalatoplatin [4] [×]
1 | HisTRAIL: Recombinant human TRAIL (aa 114-281) with N-terminal His-tag and thrombin cleavage sequence, expressed in ClearColi BL21(DE)3 | 0.0866 | 0.0868 | 0.3672 | 0.543 | Neither PVX-HisTRAIL nor HisTRAIL did induce apoptosis; also recorded: did not show cell killing efficacy | 1.38 | 1.5 | 2.53 | effective inhibition | –
2 | phenanthriplatin | – | – | – | – | – | – | – | – | – | 40
